# Measurements published in US6914045B2, “Glycopeptide antibiotics” (Wyeth Holdings Corporation, priority 2001, dated 2005).
# Experiments:
# Test in all cases: in vitro antibacterial evaluation, MIC by broth dilution
# Format in all cases: cell-based
# [1] = system: Streptococcus sp.; conditions: broth dilution, 18 hours at 35° C.
# How it was run: (§1)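 Broth dilution per NCCLS standard M7-A2 in Muller-Hinton II […], with an inoculum of 5×10^5 CFU/mL and antibiotic spanning 64-0.06 μg/mL. The MIC is the lowest concentration that inhibits growth of the organism.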
# [2] = system: Enterococcus sp.; conditions: broth dilution, 18 hours at 35° C.
# How it was run: as §1
# [3] = system: Staphylococcus sp.; conditions: broth dilution, 18 hours at 35° C.
# How it was run: as §1
# [4] = system: Escherichia coli; conditions: 18 hours at 35° C.
# How it was run: as §1
compound,measurement,setting,value
"CC(c1ccccc1)C1NC(=O)CNC(=O)C(CO)NC(=O)C(C(O)C2CNC(=N)N2C2OC(CO)C(O)C(O)C2O)NC(=O)C(C(O)C2CNC(=N)N2)NC(=O)C(Cc2ccc(OC3OC(CO)C(OC4OC5COC(Cc6ccc(Br)cc6)OC5C(O)C4O)C(O)C3O)cc2)NC1=O (stereo not drawn) [Example 118, Cyclo[glycyl-β-methylphenylalanyl-O-[4-O-[4,6-O-(4-bromophenethylidene)hexopyranosyl]-hexopyranosyl]tyrosyl-3-(2-iminoimidazolidin-4-yl)seryl-3-(3-hexopyranosyl-2-iminoimidazolidin-4-yl)serylseryl]]",MIC Streptococcus agalactiae (GC 4564),[1]; Streptococcus agalactiae (GC 4564),<0.06 mg/L
same,MIC Streptococcus pneumoniae (ATCC 6301),[1]; Streptococcus pneumoniae (ATCC 6301),<0.06 mg/L
same,MIC Streptococcus pneumoniae (GC 1894),[1]; Streptococcus pneumoniae (GC 1894),<0.06 mg/L
same,MIC Streptococcus pneumoniae (GC 4565),[1]; Streptococcus pneumoniae (GC 4565),<0.06 mg/L
same,MIC Streptococcus pyogenes (GC 4563),[1]; Streptococcus pyogenes (GC 4563),<0.06 mg/L
same,MIC Streptococcus pneumoniae (ATCC 6301),[1]; strain ATCC 6301,<0.06 mg/L
same,MIC Streptococcus pneumoniae (GC 1894),[1]; strain GC 1894,<0.06 mg/L
same,MIC Streptococcus pyogenes (GC 4563),[1]; strain GC 4563,<0.06 mg/L
same,MIC Streptococcus agalactiae (GC 4564),[1]; strain GC 4564,<0.06 mg/L
same,MIC Streptococcus pneumoniae (GC 4565),[1]; strain GC 4565,<0.06 mg/L
same,MIC Enterococcus avium (GC 4558),[2]; Enterococcus avium (GC 4558),1 to 2 mg/L
same,MIC Enterococcus faecalis (ATCC 29212),[2]; Enterococcus faecalis (ATCC 29212),1 to 2 mg/L
same,MIC Enterococcus faecalis (GC 2242),[2]; Enterococcus faecalis (GC 2242),<0.5 to 2 mg/L
same,MIC Enterococcus faecalis (GC 2691),[2]; Enterococcus faecalis (GC 2691),1 to 2 mg/L
same,MIC Enterococcus faecalis (GC 3059),[2]; Enterococcus faecalis (GC 3059),1 to 2 mg/L
same,MIC Enterococcus faecalis (GC 4552),[2]; Enterococcus faecalis (GC 4552),1 to 2 mg/L
same,MIC Enterococcus faecalis (GC 4553),[2]; Enterococcus faecalis (GC 4553),1 to 2 mg/L
same,MIC Enterococcus faecalis (GC 4554),[2]; Enterococcus faecalis (GC 4554),1 to 2 mg/L
same,MIC Enterococcus faecalis (GC 6189),[2]; Enterococcus faecalis (GC 6189),1 to 2 mg/L
same,MIC Enterococcus faecium (GC 2243),[2]; Enterococcus faecium (GC 2243),1 mg/L
same,MIC Enterococcus faecium (GC 4556),[2]; Enterococcus faecium (GC 4556),<0.5 to 1 mg/L
same,MIC Enterococcus faecium (GC 4557),[2]; Enterococcus faecium (GC 4557),<0.5 to 2 mg/L
same,MIC Enterococcus faecalis (ATCC 29212),[2]; strain ATCC 29212,1 to 2 mg/L
same,MIC Enterococcus faecalis (GC 2242),[2]; strain GC 2242,<0.5 to 2 mg/L
same,MIC Enterococcus faecium (GC 2243),[2]; strain GC 2243,1 mg/L
same,MIC Enterococcus faecalis (GC 2691),[2]; strain GC 2691,1 to 2 mg/L
same,MIC Enterococcus faecalis (GC 3059),[2]; strain GC 3059,1 to 2 mg/L
same,MIC Enterococcus faecalis (GC 4552),[2]; strain GC 4552,1 to 2 mg/L
same,MIC Enterococcus faecalis (GC 4553),[2]; strain GC 4553,1 to 2 mg/L
same,MIC Enterococcus faecalis (GC 4554),[2]; strain GC 4554,1 to 2 mg/L
same,MIC Enterococcus faecium (GC 4556),[2]; strain GC 4556,<0.5 to 1 mg/L
same,MIC Enterococcus faecium (GC 4557),[2]; strain GC 4557,<0.5 to 2 mg/L
same,MIC Enterococcus avium (GC 4558),[2]; strain GC 4558,1 to 2 mg/L
same,MIC Enterococcus faecalis (GC 6189),[2]; strain GC 6189,1 to 2 mg/L
same,MIC Coagulase Negative Staphylococcus (GC 4547),[3],<0.5 to 1 mg/L
same,MIC Coagulase Negative Staphylococcus (GC 4548),[3],0.25-0.25 μg/mL
same,MIC Coagulase Negative Staphylococcus (GC 4551),[3],<0.5 to 1 mg/L
same,MIC Coagulase Negative Staphylococcus (GC 6257),[3],0.25-0.25 μg/mL
same,MIC Staphylococcus aureus (ATCC 29213),[3],<0.5 to 1 mg/L
same,MIC Staphylococcus aureus (GC 1131),[3],<0.5 to 1 mg/L
same,MIC Staphylococcus aureus (GC 3051),[3],<0.5 to 1 mg/L
same,MIC Staphylococcus aureus (GC 3053),[3],1 mg/L
same,MIC Staphylococcus aureus (GC 4541),[3],<0.5 to 1 mg/L
same,MIC Staphylococcus aureus (GC 4542),[3],<0.5 to 1 mg/L
same,MIC Staphylococcus aureus (GC 4544),[3],<0.5 to 1 mg/L
same,MIC Staphylococcus aureus (GC 4545),[3],<0.5 to 1 mg/L
same,MIC Staphylococcus aureus-SMITH (GC 4543),[3],<0.5 to 1 mg/L
same,MIC Staphylococcus aureus (GC 1131),"[3]; inoculum 5×10^5 CFU/mL, strain GC 1131",<0.5 to 1 mg/L
same,MIC Staphylococcus aureus (ATCC 29213),[3]; strain ATCC 29213,<0.5 to 1 mg/L
same,MIC Staphylococcus aureus (GC 3051),[3]; strain GC 3051,<0.5 to 1 mg/L
same,MIC Staphylococcus aureus (GC 3053),[3]; strain GC 3053,1 mg/L
same,MIC Staphylococcus aureus (GC 4541),[3]; strain GC 4541,<0.5 to 1 mg/L
same,MIC Staphylococcus aureus (GC 4542),[3]; strain GC 4542,<0.5 to 1 mg/L
same,MIC Staphylococcus aureus (GC 4544),[3]; strain GC 4544,<0.5 to 1 mg/L
same,MIC Staphylococcus aureus (GC 4545),[3]; strain GC 4545,<0.5 to 1 mg/L
same,MIC Coagulase Negative Staphylococcus (GC 4547),[3]; strain GC 4547,<0.5 to 1 mg/L
same,MIC Coagulase Negative Staphylococcus (GC 4548),[3]; strain GC 4548,0.25-0.25 μg/mL
same,MIC Coagulase Negative Staphylococcus (GC 4551),[3]; strain GC 4551,<0.5 to 1 mg/L
same,MIC Coagulase Negative Staphylococcus (GC 6257),[3]; strain GC 6257,0.25-0.25 μg/mL
same,MIC Staphylococcus aureus-SMITH (GC 4543),[3]; strain SMITH GC 4543,<0.5 to 1 mg/L
same,MIC Escherichia coli (ATCC 25922),[4]; strain ATCC 25922,16 to 32 mg/L
same,MIC Escherichia coli (GC 4559),[4]; strain GC 4559,16 mg/L
same,MIC Escherichia coli (GC 4560),[4]; strain GC 4560,1 mg/L
